Data as given in patent US20240299400A1, “Transcription Factor GLI1 Inhibitors and Uses Thereof” (University of Connecticut, priority 2023, published 2024).

Columns and labels:
GLI1 mRNA expression [1] = assay: RT-qPCR GLI1 mRNA expression in Sufu-KO MEFs; type: cell-based, mouse; conditions: for IC50: Mus musculus, Ave ± SEM, read-out: RT-qPCR, IC50 Sufu-KO
Experimental: (§1) ASZ001 and Sufu-KO cells were seeded in 96-well plates (10,000/well, 100 μL) and incubated overnight under growth conditions. On the second day, ‘growth’ media was removed and replaced by ‘assay’ media (100 μL). On the third day, cells were treated with a serial dilution of drugs or DMSO for 48 h. mRNA expression was determined through Taqman Fast Cells-to-CT Kit (#4399003) per the manufacturer's instructions. In brief, cells were washed with chilled PBS, then mixed with lysis solution containing DNase I and incubated at RT for 5 min. Stop solution was then added to quench the lysis reagents. cDNA was then synthesized through a BioRad MyCycler following addition of reverse transcriptase. Finally, the cDNA was amplified through an ABI 7500 system following addition of Taqman Fast Universal PCR Master Mix and Taqman Gene Expression Primer. Relative gene expression levels were computed by the ΔΔCt method. Values represent mRNA expression relative to DMSO control (set at 1.0). Data were analyzed using GraphPad Prism, and IC50 values are the mean±SEM for at least two separate experiments performed in triplicate. Primers used are as follows: mouse ActB (Mm00607939_s1); mouse GLI1 (Mm00494645_ml); mouse Gli2 (Mm01293117_ml); mouse Ptch1 (Mm00436026_ml); mouse Hhip (Mm00469580_ml).

GLI1 mRNA expression [2] = assay: RT-qPCR GLI1 mRNA expression in ASZ001 BCC cells; type: cell-based, mouse; conditions: Mus musculus, Ave ± SEM, read-out: RT-qPCR, IC50 ASZ001
Experimental: as §1

ASZ001 cells = assay: MTS anti-proliferative assay in ASZ001 cells; type: cell-based, murine; conditions: Mus musculus, ASZ001, Ave ± SEM
Experimental: (§2) Cell viability was assessed by MTS proliferation assay kit (Promega) per manufacturer's protocol. Briefly, 2×10^4 cells were plated in a 96-well plate in 100 μL growth medium to make the cell population at ˜80% confluence. After 24 h, 1 μL drug solution was added to each well. DMSO was used as vehicle compound. After 48 h incubation (37° C., 5% CO2), 20 μL of freshly prepared 3-(4,5-dimethylthiazol-2-yl)-5-(3-carboxymethoxyphenyl)-2-(4-sulfophenyl)-2H-tetrazolium (MTS)/phenazine methosulfate (PMS) solution was added to each well, and the plate was returned to the incubator for 1 h. Absorbance at 490 nm was recorded, and the result was analyzed by GraphPad Prism 5. GI50 values represent mean±SEM for at least two separate experiments performed in triplicate.

DAOY (MB) = assay: MTS anti-proliferative assay in DAOY cells; type: cell-based; conditions: Homo sapiens, Daoy; Table 8, 48 h, mean ± SEM
Experimental: as §2

PANC-1 (pancreatic) = assay: MTS anti-proliferative assay in PANC-1 cells; type: cell-based; conditions: Homo sapiens, PANC-1; Table 8, 48 h, mean ± SEM
Experimental: as §2

GLI1-ZFD = target: T1, GLI1-ZFD (Homo sapiens, UniProt P08151); assay: Microscale thermophoresis (MST) binding to GLI1-ZFD; conditions: for binding to GLI1 (in words): MST binding assay
T1 construct: GLI1-ZFD Expression and Purification; made in house
T1 sequence (P08151 234-388 limits assumed): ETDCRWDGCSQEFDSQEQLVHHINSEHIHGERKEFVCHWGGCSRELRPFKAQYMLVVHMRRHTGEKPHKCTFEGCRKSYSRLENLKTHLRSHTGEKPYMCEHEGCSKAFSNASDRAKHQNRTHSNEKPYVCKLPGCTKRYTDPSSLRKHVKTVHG
Experimental: The protein expression and purification experiments followed the previous reported procedures [C. A. Maschinot, et al., Synthesis and evaluation of third generation vitamin D3 analogues as inhibitors of hedgehog signaling. Euro. J. Med. Chem. 162 (2019) 495-506].
GLI1 protein labeling was performed through the Monolith Protein Labeling Kit RED-NHS 2nd Generation (Nanotemper #MO-LO11) per the manufacturer's instructions. Briefly, GLI1 (100 μg, 1 mg/mL) underwent buffer exchange to remove incompatible ingredients like Tris or DTT. Proteins in the Labeling Buffer were incubated with freshly prepared dye (˜3-fold excess of dye) for 30 min at RT in the dark. Unreacted ‘free’ dye was removed by a gel-filtration column. Protein concentration and degree-of-labeling were calculated by measuring absorption at 280 nm and 650 nm. For each assay, 200 nM GLI1 in MST Buffer was mixed with compound dilution in DMSO (DMSO<5%, v/v). The mixture was then loaded to a capillary and the thermophoresis was subsequently determined through Monolith NT.115 station. Results were analyzed by MO.Affinity Analysis software and visualized by Graphpad Prism. MST Buffer: 50 mM HEPES, pH 8.3, 100 mM NaCl.

Row | Structure (SMILES) | IC50 (GLI1 mRNA expression [1]; Table 7, GLI1 mRNA) | IC50 (GLI1 mRNA expression [2]; ASZ001, Table 7, GLI1 mRNA) | GI50 (ASZ001 cells; Table 7, 48 h) | also measured
1 | CCN(CC)c1ccc(C(Nc2ccccn2)c2ccc3cccnc3c2O)cc1 (stereo not shown) [Compound 15, 7-((4-Diethylaminophenyl)(pyridin-2-ylamino)methyl)quinolin-8-ol] | – | – | – | IC50 (GLI1 mRNA expression [1]; Table 5, GLI1 mRNA): 1.1 ± 0.3 µM; IC50 (GLI1 mRNA expression [2]; ASZ001, Table 5, GLI1 mRNA): 1.4 ± 0.4 µM; GI50 (ASZ001 cells; Table 5, 48 h): 12.2 ± 2 µM; GI50 (DAOY (MB)): 8.2 ± 1.6 µM; GI50 (PANC-1 (pancreatic)): 10 ± 1.1 µM
2 | CCN(CC)c1ccc(C(Nc2ccccn2)c2ccccc2O)cc1 (stereo not shown) [Compound 18, 2-((4-Diethylaminophenyl)(pyridin-2-ylamino)methyl)phenol] | – | – | – | IC50 (GLI1 mRNA expression [1]; Table 5, GLI1 mRNA): > 25 µM; IC50 (GLI1 mRNA expression [2]; ASZ001, Table 5, GLI1 mRNA): 15.2 ± 5 µM; Kd (GLI1-ZFD; Table 5, Ave ± SEM): > 125 µM; GI50 (ASZ001 cells; Table 5, 48 h): > 100 µM; GI50 (PANC-1 (pancreatic)): > 100 µM
3 | CCN(CC)c1ccc(C(Nc2ccccn2)c2ccc3ccc(C)nc3c2OC2CCCC2)cc1 (stereo not shown) [Compound 22, N-((4-Diethylaminophenyl)(8-cyclopentyloxy-2-methylquinolin-7-yl)methyl)pyridin-2-amine] | – | – | – | anti-GLI1 activity in Sufu-KO cells (in words) (GLI1 mRNA expression [1]): inactive; IC50 (GLI1 mRNA expression [1]; Table 5, GLI1 mRNA): > 25 µM; IC50 (GLI1 mRNA expression [2]; ASZ001, Table 5, GLI1 mRNA): 0.54 µM; binding to GLI1 (in words) (GLI1-ZFD): did not bind to GLI1; GI50 (ASZ001 cells; Table 5, 48 h): > 100 µM
4 | CCN(CC)c1ccc(C(NC)c2cc(C)c3ccc(C)nc3c2O)cc1 (stereo not shown) [Compound 29, 7-((4-(Diethylamino)phenyl)(methylamino)methyl)-2,5-dimethylquinolin-8-ol] | – | – | – | IC50 (GLI1 mRNA expression [1]; Table 6, GLI1 mRNA): > 25 µM; IC50 (GLI1 mRNA expression [2]; ASZ001, Table 6, GLI1 mRNA): 15.4 ± 2.2 µM; GI50 (ASZ001 cells; Table 6, 48 h): > 100 µM
5 | CCN(CC)c1ccc(C(Nc2cccnc2)c2ccc3ccc(C)nc3c2O)cc1 (stereo not shown) [Compound 30, 7-((4-(diethylamino)phenyl)(pyridin-3-ylamino)methyl)-2-methylquinolin-8-ol] | – | – | – | IC50 (GLI1 mRNA expression [1]; Table 6, GLI1 mRNA): 4.4 ± 1.9 µM; IC50 (GLI1 mRNA expression [2]; ASZ001, Table 6, GLI1 mRNA): 2.5 ± 0.8 µM; GI50 (ASZ001 cells; Table 6, 48 h): 81.4 ± 10.7 µM
6 | CCN(CC)c1ccc(C(Nc2ccncc2)c2ccc3ccc(C)nc3c2O)cc1 (stereo not shown) [Compound 31, 7-((4-(diethylamino)phenyl)(pyridin-4-ylamino)methyl)-2-methylquinolin-8-ol] | – | – | – | IC50 (GLI1 mRNA expression [1]; Table 6, GLI1 mRNA): > 25 µM; IC50 (GLI1 mRNA expression [2]; ASZ001, Table 6, GLI1 mRNA): 21.4 ± 6.7 µM; GI50 (ASZ001 cells; Table 6, 48 h): > 100 µM
7 | Cc1ccc2c(C)cc(C(C)Nc3ccccn3)c(O)c2n1 (stereo not shown) [Compound 32, 2,5-Dimethyl-7-(1-(pyridin-2-ylamino)ethyl)quinolin-8-ol] | 4.8 ± 1.4 µM | 5.3 ± 1.7 µM | 29.8 ± 4 µM | –
8 | Cc1ccc2c(C)cc(C(C)Nc3ccccc3)c(O)c2n1 (stereo not shown) [Compound 33, 2,5-Dimethyl-7-(1-(phenylamino)ethyl)quinolin-8-ol] | 8.8 ± 2.7 µM | 7.1 ± 2 µM | 29.5 ± 5.1 µM | GI50 (PANC-1 (pancreatic)): 56.3 ± 9.4 µM
9 | Cc1ccc2ccc(C(Nc3ccccn3)c3ccc(N4CCc5ccccc54)cc3)c(O)c2n1 (stereo not shown) [Compound 46, 7-((4-(Indolin-1-yl)phenyl)(pyridin-2-ylamino)methyl)-2-methylquinolin-8-ol] | 4.3 ± 0.8 µM | 15.4 ± 4.7 µM | 67.9 ± 12.8 µM | –
10 | Cc1ccc2ccc(C(Nc3ccccn3)c3ccc(-n4ccc5ccccc54)cc3)c(O)c2n1 (stereo not shown) [Compound 47, 7-((4-(1H-indol-1-yl)phenyl)(pyridin-2-ylamino)methyl)-2-methylquinolin-8-ol] | 1.7 ± 0.3 µM | 10.5 ± 3.2 µM | 62.3 ± 13.5 µM | –
11 | Cc1ccc2ccc(C(Nc3ccccn3)c3ccc(-n4cccc4)cc3)c(O)c2n1 (stereo not shown) [Compound 49, 7-((4-(1H-Pyrrol-1-yl)phenyl)(pyridin-2-ylamino)methyl)-2-methylquinolin-8-ol] | 1.1 ± 0.4 µM | 14.2 ± 2.4 µM | 91.7 ± 21 µM | Kd (GLI1-ZFD; Table 7, Ave ± SEM): 28.5 ± 7.2 µM; GI50 (PANC-1 (pancreatic)): > 100 µM
12 | Cc1ccc2ccc(C(Nc3ccccn3)c3ccc(-n4ccnc4)cc3)c(O)c2n1 (stereo not shown) [Compound 50, 7-((4-(1H-Imidazol-1-yl)phenyl)(pyridin-2-ylamino)methyl)-2-methylquinolin-8-ol] | 3.8 ± 0.7 µM | > 25 µM | > 100 µM | Kd (GLI1-ZFD; Table 7, Ave ± SEM): 18.8 ± 5.2 µM
13 | Cc1ccc2ccc(C(Nc3ccccn3)c3ccc(-n4ccnc4C)cc3)c(O)c2n1 (stereo not shown) [Compound 51, 7-((4-(2-Methyl-1H-imidazol-1-yl)phenyl)(pyridin-2-ylamino)methyl)-2-methylquinolin-8-ol] | 13.6 ± 3.5 µM | 5.3 ± 1.2 µM | > 100 µM | –
14 | Cc1ccc2ccc(C(Nc3ccccn3)c3ccc(-n4cccn4)cc3)c(O)c2n1 (stereo not shown) [Compound 52, 7-((4-(1H-Pyrazol-1-yl)phenyl)(pyridin-2-ylamino)methyl)-2-methylquinolin-8-ol] | 1.5 ± 0.3 µM | 2.7 ± 0.9 µM | 37.2 ± 4.8 µM | Kd (GLI1-ZFD; Table 7, Ave ± SEM): 10.5 ± 4.4 µM
15 | COc1c(C(Nc2ccccn2)c2ccc(N3CCCC3=O)cc2)ccc2ccc(C)nc12 (stereo not shown) [Compound 53, 1-(4-((8-Methoxy-2-methylquinolin-7-yl)(pyridin-2-ylamino)methyl)phenyl)pyrrolidin-2-one] | > 25 µM | 0.77 ± 0.03 µM | 42.9 ± 12.2 µM | –
16 | CS(=O)(=O)c1ccc(C(=O)Nc2ccc(Cl)c(-c3ccccn3)c2)c(Cl)c1 [GDC-0449, reference compound] | – | – | – | IC50 (GLI1 mRNA expression [1]; Table 5, GLI1 mRNA): > 25 µM; IC50 (GLI1 mRNA expression [2]; ASZ001, Table 5, GLI1 mRNA): 0.04 ± 0.01 µM; GI50 (ASZ001 cells; Table 5, 48 h): 73.6 ± 13.7 µM; GI50 (PANC-1 (pancreatic)): 80.7 ± 14.2 µM

Now from value to compound, other results behind:

Row | IC50 (GLI1 mRNA expression [1]; Table 7, GLI1 mRNA) | IC50 (GLI1 mRNA expression [2]; ASZ001, Table 7, GLI1 mRNA) | Structure (SMILES) | GI50 (ASZ001 cells; Table 7, 48 h) | also measured
17 | 9 ± 2.2 µM | 15.8 ± 6.3 µM | CCN(CC)c1ccccc1C(Nc1ccccn1)c1ccc2ccc(C)nc2c1O (stereo not shown) [Compound 35, 7-((2-Diethylaminophenyl)(pyridin-2-ylamino)methyl)-2-methylquinolin-8-ol] | 29.3 ± 4.9 µM | binding to GLI1 (in words) (GLI1-ZFD): do not bind GLI1; Kd (GLI1-ZFD; Table 7, Ave ± SEM): > 125 µM
18 | 5.6 ± 1.5 µM | 15.1 ± 4.1 µM | CCN(CC)c1cccc(C(Nc2ccccn2)c2ccc3ccc(C)nc3c2O)c1 (stereo not shown) [Compound 36, 7-((3-Diethylaminophenyl)(pyridin-2-ylamino)methyl)-2-methylquinolin-8-ol] | 82.5 ± 20.3 µM | –
19 | 5.3 ± 1.3 µM | 19.2 ± 5.5 µM | Cc1ccc2ccc(C(Nc3ccccn3)c3cccc(F)c3)c(O)c2n1 (stereo not shown) [Compound 37, 7-((3-Fluorophenyl)(pyridin-2-ylamino)methyl)-2-methylquinolin-8-ol] | 33.1 ± 9.1 µM | –
20 | 10.6 ± 2.6 µM | 19.3 ± 5 µM | CCNc1cccc(C(Nc2ccccn2)c2ccc3ccc(C)nc3c2O)c1 (stereo not shown) [Compound 38, 7-((3-Ethylaminophenyl)(pyridin-2-ylamino)methyl)-2-methylquinolin-8-ol] | > 100 µM | –
21 | 5.6 ± 0.9 µM | 17.3 ± 6.1 µM | Cc1ccc2ccc(C(Nc3ccccn3)c3ccc([N+](=O)[O-])cc3)c(O)c2n1 (stereo not shown) [Compound 40, 7-((4-Nitrophenyl)(pyridin-2-ylamino)methyl)-2-methylquinolin-8-ol] | 61.8 ± 27.5 µM | GI50 (DAOY (MB)): 75.2 ± 17.4 µM; GI50 (PANC-1 (pancreatic)): > 100 µM
22 | 3.5 ± 1 µM | 9.8 ± 1.3 µM | Cc1ccc2ccc(C(Nc3ccccn3)c3ccc(N)cc3)c(O)c2n1 (stereo not shown) [Compound 41, 7-((4-Aminophenyl)(pyridin-2-ylamino)methyl)-2-methylquinolin-8-ol] | > 100 µM | –
